The numbers were not newly measured in patent US6355270B1, “Particles for oral delivery of peptides and proteins” (The Regents of the University of California, priority 1999, dated 2002), which cites them from elsewhere.

Read-outs that look alike come from different tables or passages of the source.

The subject of data set [1] is intestinal tight junctions. The following applies: rabbit intestine, in vitro, reversible.
Data set [2] has as its system intestinal tight junctions. The following applies: in vivo.

As to Zonula occludens toxin [Zot], the survival time result in the data set with diabetic rats (diabetic animals chronically treated with oral insulin+Zot, versus parenterally treated rats) is on record as “comparable to that observed in parenterally treated rats”. Besides, in the data set with diabetic rats (diabetic rats, oral insulin co-administered with Zot, versus parenteral injection of insulin), the “lowering of serum glucose concentrations” value is on record as “comparable to those obtained after parenteral injection of the hormone”. For the same substance, the “increase of intestinal permeability to insulin” value in data set [1] (P=0.034) is 72%. In data set [1] (P=0.04), the “increase of intestinal permeability to immunoglobulins” value is reported as 52%. In addition, in data set [2] (both rabbit jejunum and ileum), the “increase of insulin absorption” value is on record as 10 fold. Moreover, the “change of insulin absorption” value in data set [2] (rabbit colon) was “no substantial changes”. Moreover, the “increase of IgG absorption” value in data set [2] (rabbit ileum) is “six-fold”; in data set [2] (rabbit jejunum), “twofold”.
